# From patent US7759337B2, “Phthalazine compounds and methods of use” (Amgen Inc., priority 2005, dated 2010)
# Tested on: production of TNF by monocytes activated with bacterial lipopolysaccharide (LPS)
# Experiment: Lipopolysaccharide-activated monocyte TNF production assay
# Assay type: cell-based
# Settings: Homo sapiens; whole blood monocyte assay (LPS induced TNF release)
# How it was run: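 Adherent human PBMC-derived monocytes preincubated 60 min with nine two-fold compound dilutions, then stimulated with E. coli K532 LPS (30 ng/mL in the added medium) for 4 h at 37 °C. Supernatant TNF measured by sandwich ELISA; IC50 is the compound concentration halving TNF production, from second-order polynomial fits.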
row,SMILES,IC50 [µM]
1,"Cc1ccc(C(N)=O)cc1-c1ccc2c(Oc3ccc(F)cc3F)nncc2c1 [Example 304, 3-[1-(2,4-difluorophenoxy)phthalazin-6-yl]-4-methylbenzamide]",≤ 5
2,"Cc1cc(F)ccc1Oc1nncc2cc(-c3cc(C(=O)NC4CC4)ccc3C)ccc12 [Example 305, N-cyclopropyl-3-[1-(4-fluoro-2-methylphenoxy)phthalazin-6-yl]-4-methylbenzamide]",≤ 5
3,"COc1ccccc1Oc1nncc2cc(-c3cc(C(N)=O)ccc3C)ccc12 [Example 306, 3-[1-(2-methoxyphenoxy)phthalazin-6-yl]-4-methylbenzamide]",≤ 5
4,"Cc1ccc(C(N)=O)cc1-c1ccc2c(Oc3cccc(Cl)c3)nncc2c1 [Example 307, 3-[1-(3-chlorophenoxy)phthalazin-6-yl]-4-methylbenzamide]",≤ 5
5,"Cc1ccc(C(=O)NC2CC2)cc1-c1ccc2c(Oc3cccnc3C)nncc2c1 [Example 308, N-cyclopropyl-4-methyl-3-{1-[(2-methylpyridin-3-yl)oxy]phthalazin-6-yl}benzamide]",≤ 5
6,"Cc1ccc(C(=O)NC2CC2)cc1-c1ccc2c(NC[C@@H]3CCCO3)nncc2c1 [Example 309, N-cyclopropyl-4-methyl-3-(1-{[(2S)-tetrahydrofuran-2-ylmethyl]amino}phthalazin-6-yl)benzamide]",≤ 5
7,"Cc1ccc(C(=O)NC2CC2)cc1-c1ccc2c(NCCCN3CCCC3=O)nncc2c1 [Example 310, N-cyclopropyl-4-methyl-3-(1-{[3-(2-oxopyrrolidin-1-yl)propyl]amino}phthalazin-6-yl)benzamide]",≤ 5
8,"Cc1ccc(C(N)=O)cc1-c1ccc2c(OC3CCCCC3)nncc2c1 [Example 311, 3-[1-(cyclohexyloxy)phthalazin-6-yl]-4-methylbenzamide]",≤ 5
9,"Cc1ccc(C(=O)NC2CC2)cc1-c1ccc2c(NC3CCC(O)CC3)nncc2c1 (stereo not shown) [Example 312, N-cyclopropyl-3-{1-[(4-hydroxycyclohexyl)amino]phthalazin-6-yl}-4-methylbenzamide]",≤ 5
10,"CC[C@@H](C)Nc1nncc2cc(-c3cc(C(=O)NC4CC4)ccc3C)ccc12 [Example 314, N-cyclopropyl-4-methyl-3-(1-{[(1R)-1-methylpropyl]amino}phthalazin-6-yl)benzamide]",≤ 5
11,"Cc1ccc(C(N)=O)cc1-c1ccc2c(OCC(C)(C)C)nncc2c1 [Example 315, 4-methyl-3-[1-(neopentyloxy)phthalazin-6-yl]benzamide]",≤ 5
12,"Cc1ccc(C(N)=O)cc1-c1ccc2c(OC3CCCN(C)C3)nncc2c1 (stereo not shown) [Example 316, 4-methyl-3-{1-[(1-methylpiperidin-3-yl)oxy]phthalazin-6-yl}benzamide]",≤ 5
13,"Cc1ccc(C(=O)NC2CC2)cc1-c1ccc2c(OC3CCCN(C)C3)nncc2c1 (stereo not shown) [Example 317, N-cyclopropyl-4-methyl-3-{1-[(1-methylpiperidin-3-yl)oxy]phthalazin-6-yl}benzamide]",≤ 5
14,"Cc1ccccc1Oc1nncc2cc(-c3c(C)ccc4c(NC5CC5)noc34)ccc12 [Example 318, N-cyclopropyl-6-methyl-7-[1-(2-methylphenoxy)phthalazin-6-yl]-1,2-benzisoxazol-3-amine]",≤ 5
15,"Cc1ccc(C(=O)NC2CC2)cc1-c1ccc2c(OC3CCN(C)CC3)nncc2c1 [Example 319, N-cyclopropyl-4-methyl-3-{1-[(1-methylpiperidin-4-yl)oxy]phthalazin-6-yl}benzamide]",≤ 5
16,"Cc1cc(F)ccc1Oc1nncc2cc(-c3cc(C(N)=O)ccc3C)ccc12 [Example 320, 3-[1-(4-fluoro-2-methylphenoxy)phthalazin-6-yl]-4-methylbenzamide]",≤ 5
17,"Cc1ccc(Oc2nncc3cc(-c4cc(C(N)=O)ccc4C)ccc23)c(C)c1 [Example 321, 3-[1-(2,4-dimethylphenoxy)phthalazin-6-yl]-4-methylbenzamide]",≤ 5
18,"CC[C@H](C)Oc1nncc2cc(-c3cc(C(N)=O)ccc3C)ccc12 [Example 322, 4-methyl-3-(1-{[(1S)-1-methylpropyl]oxy}phthalazin-6-yl)benzamide]",≤ 5
19,"Cc1ccc(C(N)=O)cc1-c1ccc2c(NC3CCCC3)nncc2c1 [Example 323, 3-[1-(cyclopentylamino)phthalazin-6-yl]-4-methylbenzamide]",≤ 5
20,"CC[C@@H](C)Oc1nncc2cc(-c3cc(C(N)=O)ccc3C)ccc12 [Example 324, 4-methyl-3-(1-{[(1R)-1-methylpropyl]oxy}phthalazin-6-yl)benzamide]",≤ 5
21,"Cc1ccc(C(=O)NC2CC2)cc1-c1ccc2c(NC3CCCC3)nncc2c1 [Example 325, 3-[1-(cyclopentylamino)phthalazin-6-yl]-N-cyclopropyl-4-methylbenzamide]",≤ 5
22,"Cc1ccc(C(=O)NC2CC2)cc1-c1ccc2c(OCC(C)(C)C)nncc2c1 [Example 326, N-cyclopropyl-4-methyl-3-[1-(neopentyloxy)phthalazin-6-yl]benzamide]",≤ 5
23,"Cc1ccc(C(=O)NC2CC2)cc1-c1ccc2c(NC(C)(C)C)nncc2c1 [Example 327, 3-[1-(tert-butylamino)phthalazin-6-yl]-N-cyclopropyl-4-methylbenzamide]",≤ 5

row,SMILES,IC50 [µM]
1,"CC[C@@H](C)Oc1nncc2cc(-c3cc(C(=O)NC4CC4)ccc3C)ccc12 [Example 328, N-cyclopropyl-4-methyl-3-(1-{[(1R)-1-methylpropyl]oxy}phthalazin-6-yl)benzamide]",≤ 5
2,"Cc1ccc(C(=O)NC2CC2)cc1-c1ccc2c(NC3CCOCC3)nncc2c1 [Example 329, N-cyclopropyl-4-methyl-3-[1-(tetrahydro-2H-pyran-4-ylamino)phthalazin-6-yl]benzamide]",≤ 5
3,"CNc1noc2c(-c3ccc4c(O[C@@H](C)COC)nncc4c3)c(C)ccc12 [Example 330, N,6-dimethyl-7-(1-(((1S)-1-methyl-2-(methyloxy)ethyl)oxy)-6-phthalazinyl)-1,2-benzisoxazol-3-amine]",≤ 5
4,"CNc1noc2c(-c3ccc4c(OC(C)C)nncc4c3)c(C)ccc12 [Example 331, N,6-dimethyl-7-(1-((1-methylethyl)oxy)-6-phthalazinyl)-1,2-benzisoxazol-3-amine]",≤ 5
5,"Cc1ccc(Oc2ccc3c(-c4ccccc4C)nncc3c2)cc1 [Example 332, 6-(4-methylphenoxy)-1-(2-methylphenyl)phthalazine]",≤ 5
6,"Fc1ccc(Oc2ccc3c(-c4ccc(CN5CCOCC5)cc4)nncc3c2)cc1 [Example 333, 6-(4-fluorophenoxy)-1-[4-(morpholin-4-ylmethyl)phenyl]phthalazine]",≤ 5
7,"COc1ccccc1-c1nncc2cc(Oc3ccc(C)cc3)ccc12 [Example 334, 1-(2-methoxyphenyl)-6-(4-methylphenoxy)phthalazine]",≤ 5
8,"CS(=O)(=O)c1ccc(-c2nncc3cc(Oc4ccc(F)cc4)ccc23)cc1 [Example 335, 6-(4-fluorophenoxy)-1-[4-(methylsulfonyl)phenyl]phthalazine]",≤ 5
9,"Fc1ccc(Oc2ccc3c(N4CCOCC4)nncc3c2)cc1 [Example 336, 6-(4-fluorophenoxy)-1-morpholin-4-ylphthalazine]",≤ 5
10,"Fc1ccc(Oc2ccc3c(-c4ccsc4)nncc3c2)cc1 [Example 337, 6-(4-fluorophenoxy)-1-thien-3-ylphthalazine]",≤ 5
11,"Cc1ccccc1-c1nncc2cc(Oc3cccc(Cl)c3)ccc12 [Example 338, 6-(3-chlorophenoxy)-1-(2-methylphenyl)phthalazine]",≤ 5
12,"Fc1ccc(Oc2ccc3c(-c4ccccc4C(F)(F)F)nncc3c2)cc1 [Example 339, 6-(4-fluorophenoxy)-1-[2-(trifluoromethyl)phenyl]phthalazine]",≤ 5
13,"Cc1ccccc1-c1nncc2cc(Oc3ccc(F)cc3)ccc12 [Example 340, 6-(4-fluorophenoxy)-1-(2-methylphenyl)phthalazine]",≤ 5
14,"Cc1cc(F)ccc1-c1nncc2cc(Oc3ccc(F)cc3)ccc12 [Example 341, 1-(4-fluoro-2-methylphenyl)-6-(4-fluorophenoxy)phthalazine]",≤ 5
15,"COC(=O)c1ccccc1Oc1ccc2c(-c3ccccc3C)nncc2c1 [Example 342, methyl 2-{[1-(2-methylphenyl)phthalazin-6-yl]oxy}benzoate]",≤ 5
16,"Cc1ccccc1-c1nncc2cc(Oc3ccccc3C(=O)NC3CC3)ccc12 [Example 343, N-cyclopropyl-2-{[1-(2-methylphenyl)phthalazin-6-yl]oxy}benzamide]",≤ 5
17,"Fc1ccc(Oc2ccc3c(-c4cn[nH]c4)nncc3c2)cc1 [Example 344, 6-(4-fluorophenoxy)-1-(1H-pyrazol-4-yl)phthalazine]",≤ 5
18,"Cc1ccccc1-c1nncc2cc(Oc3ccc(F)cc3F)ccc12 [Example 345, 6-(2,4-difluorophenoxy)-1-(2-methylphenyl)phthalazine]",≤ 5
19,"Cc1ccc(Oc2ccc3c(-c4ccccc4Cl)nncc3c2)cc1 [Example 346, 1-(2-chlorophenyl)-6-(4-methylphenoxy)phthalazine]",≤ 5
20,"Cc1cc(F)ccc1-c1nncc2cc(Oc3ccccc3)ccc12 [Example 347, 1-(4-fluoro-2-methylphenyl)-6-phenoxyphthalazine]",≤ 5
21,"O=C(O)Cc1ccc(-c2nncc3cc(Oc4ccc(F)cc4)ccc23)cc1 [Example 348, {4-[6-(4-fluorophenoxy)phthalazin-1-yl]phenyl}acetic acid]",≤ 5
22,"COc1ncccc1-c1nncc2cc(Oc3ccc(F)cc3)ccc12 [Example 349, 6-(4-fluorophenoxy)-1-(2-methoxypyridin-3-yl)phthalazine]",≤ 5
23,"Fc1ccc(Oc2ccc3c(N4C[C@@H]5C[C@H]4CO5)nncc3c2)cc1 [Example 350, (1S,4S)-5-[6-(4-fluorophenoxy)phthalazin-1-yl]-2-oxa-5-azabicyclo[2.2.1]heptane]",≤ 5
